These are literature values, as cited in patent US20230226058A1, “METHODS AND COMPOSITIONS FOR TREATING ACUTE KIDNEY INJURY” (CalciMedica, Inc., priority 2020, published 2023).

For the data set, the system named is AKI rats.

Take `Cc1nnsc1C(=O)Nc1ccc(-n2nc(C(F)(F)F)cc2C(F)(F)F)cc1` [YM58483/BPT2]: the “infiltration of total CD4+ T-cells, B-cells, and dendritic cells following I/R” value (AKI rats) is recorded as “attenuated”. Further, the “Total IL17 expressing cells” value (treated rats relative to vehicle treated rats) is “reduced”.
